Data: patent publication US20240199587A1, “HETEROCYCLIC COMPOUNDS” (Hoffmann-La Roche Inc., priority 2021, published 2024)

The compounds below were run against T1, MAGL (Homo sapiens, UniProt Q99685) (assay: 2-AG assay (MAGL inhibitory activity, hydrolysis of 2-arachidonoylglycerol to arachidonic acid followed by mass spectrometry)). Conditions: 8 μM 2-arachidonoylglycerol, 15 min pre-incubation, 30 min incubation at RT, RapidFire MS readout.
T1 sequence (Q99685 1-303): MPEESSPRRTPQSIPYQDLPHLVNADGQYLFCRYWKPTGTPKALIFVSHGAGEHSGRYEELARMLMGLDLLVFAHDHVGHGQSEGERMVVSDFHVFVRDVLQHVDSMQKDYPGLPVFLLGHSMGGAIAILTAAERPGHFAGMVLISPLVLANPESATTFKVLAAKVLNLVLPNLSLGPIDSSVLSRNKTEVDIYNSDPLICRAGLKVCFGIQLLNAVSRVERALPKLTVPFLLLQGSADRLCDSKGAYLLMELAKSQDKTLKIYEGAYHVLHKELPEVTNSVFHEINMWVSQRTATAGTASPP
Assay type: biochemical
Method in brief: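 Arachidonic acid released from 8 μM 2-arachidonoylglycerol was quantified by online SPE triple-quadrupole MS (negative ESI, 303.1→259.1), normalised to d8-arachidonic acid internal standard. Reaction ran 30 min at RT after 15 min RT compound pre-incubation with […] MAGL in TRIS/EDTA/Tween-20 buffer, 2.5% DMSO.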

**Q.** O=C(N1C[C@H]2C[C@H](Oc3ccc(F)c(C(F)(F)F)c3)C[C@H]2C1)N1CC2(CC(n3cnc(C4CC4)n3)C2)C1 [Example 120, [6-(3-cyclopropyl-1,2,4-triazol-1-yl)-2-azaspiro[3.3]heptan-2-yl]-[rac-(3aS,6aR)-5-[4-fluoro-3-(trifluoromethyl)phenoxy]-3,3a,4,5,6,6a-hexahydro-1H-cyclopenta[c]pyrrol-2-yl]methanone] was tested. Which IC50 did it give?
**A.** 1 nM

**Q.** How did the IC50 turn out when O=C(N1CC(OCc2cc(C(F)(F)F)ccc2F)C1)N1CC2(CC(n3cnc(C4CC4)n3)C2)C1 [Example 73, (6-(3-cyclopropyl-1H-1,2,4-triazol-1-yl)-2-azaspiro[3.3]heptan-2-yl)(3-((2-fluoro-5-(trifluoromethyl)benzyl)oxy)azetidin-1-yl)methanone] was run?
**A.** 8.2 nM

**Q.** How did the IC50 turn out when O=C(N1CC(c2ccc(N3CC(C(F)(F)F)C3)nc2)C1)N1CC2(CC(n3cnc(C(F)(F)F)n3)C2)C1 [Example 422, [3-[6-[3-(trifluoromethyl)azetidin-1-yl]-3-pyridyl]azetidin-1-yl]-[6-[3-(trifluoromethyl)-1,2,4-triazol-1-yl]-2-azaspiro[3.3]heptan-2-yl]methanone] was run?
**A.** 2.81 nM

**Q.** With O=C(N1CC2(CC(Cc3ccc(C(F)(F)F)nc3)C2)C1)N1CC2(CC(c3cncc(F)c3)C2)C1 [Example 515, [6-(5-fluoro-3-pyridyl)-2-azaspiro[3.3]heptan-2-yl]-[6-[[6-(trifluoromethyl)-3-pyridyl]methyl]-2-azaspiro[3.3]heptan-2-yl]methanone] as the compound, how does the IC50 read?
**A.** 95.8 nM

**Q.** How did the IC50 turn out when CC(C)(C)c1nc(-c2ccc(C(=O)N3CC4(CC(n5ncc6c5CCOC6)C4)C3)cc2)no1 [Example 18, [4-(5-tert-butyl-1,2,4-oxadiazol-3-yl)phenyl]-[6-(6,7-dihydro-4H-pyrano[4,3-c]pyrazol-1-yl)-2-azaspiro[3.3]heptan-2-yl]methanone] was run?
**A.** 3730 nM

**Q.** CCc1ncn(C2CC3(C2)CN(C(=O)c2ccc(-c4noc(C(C)(C)C)n4)cc2)C3)n1 [Example 156, [4-(5-tert-butyl-1,2,4-oxadiazol-3-yl)phenyl]−[6-(3-ethyl-1,2,4-triazol-1-yl)-2-azaspiro[3.3]heptan-2-yl]methanone] was tested. Which IC50 did it give?
**A.** 33.9 nM

**Q.** How did the IC50 turn out when Cc1ccc(C2CC3(C2)CN(C(=O)c2ccc(-c4noc(C(C)(C)C)n4)cc2)C3)cn1 [Example 23, [4-(5-tert-butyl-1,2,4-oxadiazol-3-yl)phenyl]−[6-(6-methyl-3-pyridyl)-2-azaspiro[3.3]heptan-2-yl]methanone] was run?
**A.** 229 nM

**Q.** For O=C(N1CC2(CC(n3cnc(C4CC4)n3)C2)C1)N1CC2(C1)CN(S(=O)(=O)c1cccc3nonc13)C2 [Example 250, [2-(2,1,3-benzoxadiazol-4-ylsulfonyl)-2,6-diazaspiro[3.3]heptan-6-yl]-[6-(3-cyclopropyl-1,2,4-triazol-1-yl)-2-azaspiro[3.3]heptan-2-yl]methanone], which IC50 is on record?
**A.** 15.1 nM

**Q.** O=C(N1CC2(CC(n3cnc(C4CC4)n3)C2)C1)C12CCC(COCC3(C(F)(F)F)CC3)(CC1)CC2 [Example 155, [6-(3-cyclopropyl-1,2,4-triazol-1-yl)-2-azaspiro[3.3]heptan-2-yl]−[4-[[1-(trifluoromethyl)cyclopropyl]methoxymethyl]-1-bicyclo[2.2.2]octanyl]methanone] was tested. Which IC50 did it give?
**A.** 20.8 nM

**Q.** With CC1(COc2ncc(C(=O)N3CC4(CC(n5cnc(C6CC6)n5)C4)C3)cc2F)CC1 [Example 29, [6-(3-cyclopropyl-1,2,4-triazol-1-yl)-2-azaspiro[3.3]heptan-2-yl]-[5-fluoro-6-[(1-methylcyclopropyl)methoxy]-3-pyridyl]methanone] as the compound, how does the IC50 read?
**A.** 52.2 nM

**Q.** How did the IC50 turn out when O=C(N1CC(Oc2ccc(C(F)(F)F)nc2)C1)N1CC2(CC(n3cnc(C4CC4)n3)C2)C1 [Example 270, (6-(3-cyclopropyl-1H-1,2,4-triazol-1-yl)-2-azaspiro[3.3]heptan-2-yl)(3-((6-(trifluoromethyl)pyridin-3-yl)oxy)azetidin-1-yl)methanone] was run?
**A.** 32.7 nM

**Q.** For Cc1cc(F)c(F)cc1O[C@H]1C[C@@H]2CN(C(=O)N3CC4(CC(n5cnc(C6CC6)n5)C4)C3)C[C@@H]2C1 [Example 128, [6-(3-cyclopropyl-1,2,4-triazol-1-yl)-2-azaspiro[3.3]heptan-2-yl]-[rac-(3aS,6aR)-5-(4,5-difluoro-2-methyl-phenoxy)-3,3a,4,5,6,6a-hexahydro-1H-cyclopenta[c]pyrrol-2-yl]methanone], which IC50 is on record?
**A.** 1.8 nM

**Q.** With O=C(N1CC(Oc2cc(C(F)(F)F)ncn2)C1)N1CC2(CC(n3cnc(C4CC4)n3)C2)C1 [Example 285, [6-(3-cyclopropyl-1,2,4-triazol-1-yl)-2-azaspiro[3.3]heptan-2-yl]-[3-[6-(trifluoromethyl)pyrimidin-4-yl]oxyazetidin-1-yl]methanone] as the compound, how does the IC50 read?
**A.** 54.3 nM

**Q.** O=C(N1CC(c2ccc(N3CCC(O)(C(F)(F)F)C3)nc2)C1)N1CC2(CC(n3cnc(C4CC4)n3)C2)C1 (single isomer, unassigned) [Example 214] was tested. Which IC50 did it give?
**A.** 1.6 nM

**Q.** O=C(N1CC(c2ccc(OC(F)(F)F)c(F)c2)C1)N1CC2(CC(n3cnc(C4CC4)n3)C2)C1 [Example 36, [6-(3-cyclopropyl-1,2,4-triazol-1-yl)-2-azaspiro[3.3]heptan-2-yl]-[3-[3-fluoro-4-(trifluoromethoxy)phenyl]azetidin-1-yl]methanone] was tested. Which IC50 did it give?
**A.** 0.4 nM

**Q.** How did the IC50 turn out when O=C(N1CC(Oc2ccc(C3CC3)cc2)C1)N1CC2(CC(n3cnc(C4CC4)n3)C2)C1 [Example 183, (6-(3-cyclopropyl-1H-1,2,4-triazol-1-yl)-2-azaspiro[3.3]heptan-2-yl)(3-(4-cyclopropylphenoxy)azetidin-1-yl)methanone] was run?
**A.** 0.1 nM

**Q.** How did the IC50 turn out when CC(C)(C)c1nc(-c2ccc(C(=O)N3CC4(CC(n5nccc5C5(C)CC5)C4)C3)cc2)no1 [Example 10, [4-(5-tert-butyl-1,2,4-oxadiazol-3-yl)phenyl]-[6-[5-(1-methylcyclopropyl)pyrazol-1-yl]-2-azaspiro[3.3]heptan-2-yl]methanone] was run?
**A.** 33.1 nM

**Q.** How did the IC50 turn out when O=C(N1C[C@H]2C[C@H](Oc3ccc(F)c(F)c3)C[C@H]2C1)N1CC2(CC(n3cnc(C4CC4)n3)C2)C1 [Example 119, [6-(3-cyclopropyl-1,2,4-triazol-1-yl)-2-azaspiro[3.3]heptan-2-yl]-[rac-(3aS,6aR)-5-(3,4-difluorophenoxy)-3,3a,4,5,6,6a-hexahydro-1H-cyclopenta[c]pyrrol-2-yl]methanone] was run?
**A.** 7.4 nM

**Q.** Which IC50 does the source give for O=C(N1CC2(CC(Oc3ccc(OC(F)(F)F)cc3F)C2)C1)N1CC2(CC(n3cnc(C4CC4)n3)C2)C1 [Example 42, [6-(3-cyclopropyl-1,2,4-triazol-1-yl)-2-azaspiro[3.3]heptan-2-yl]−[6-[2-fluoro-4-(trifluoromethoxy)phenoxy]-2-azaspiro[3.3]heptan-2-yl]methanone] here?
**A.** 0.1 nM

**Q.** For O=C(N1CCC([C@H](c2ccc(F)cc2)c2nc(C3CC3)no2)CC1)N1CC2(CC(n3cnc(C4CC4)n3)C2)C1 [Example 197, [4-[(R)-(3-cyclopropyl-1,2,4-oxadiazol-5-yl)-(4-fluorophenyl)methyl]-1-piperidyl]-[6-(3-cyclopropyl-1,2,4-triazol-1-yl)-2-azaspiro[3.3]heptan-2-yl]methanone], which IC50 is on record?
**A.** 0.4 nM

**Q.** With O=C(N1CC2(CC(n3cnc(C4CC4)n3)C2)C1)N1CC2(C1)CN(S(=O)(=O)NC1(C(F)(F)F)CC1)C2 [Example 260, 6-[6-(3-cyclopropyl-1,2,4-triazol-1-yl)-2-azaspiro[3.3]heptane-2-carbonyl]-N-[1-(trifluoromethyl)cyclopropyl]-2,6-diazaspiro[3.3]heptane-2-sulfonamide] as the compound, how does the IC50 read?
**A.** 23.1 nM

**Q.** Which IC50 does the source give for “[6-[3-(1- hydroxycyclopropyl)- 1,2,4-triazol-1-yl]-2- azaspiro[3.3]heptan-2- yl]-[6-[4- (trifluoromethyl)-2- pyridyl]methyl]-2- azaspiro[3.3]heptan-2- yl]methanone [Example 400]” here?
**A.** 4.65 nM

**Q.** Which IC50 does the source give for CCCS(=O)(=O)N1CC2(CN(C(=O)N3CC4(CC(n5cnc(C6CC6)n5)C4)C3)C2)C1 [Example 320, [6-(3-cyclopropyl-1,2,4-triazol-1-yl)-2-azaspiro[3.3]heptan-2-yl]-(2-propylsulfonyl-2,6-diazaspiro[3.3]heptan-6-yl)methanone] here?
**A.** 314 nM

**Q.** With O=C(N1CC(c2ccc(NCC3(C(F)(F)F)CC3)nc2)C1)N1CC2(CC(n3cnc(C4(O)CC4)n3)C2)C1 [Example 372, [6-[3-(1-hydroxycyclopropyl)-1,2,4-triazol-1-yl]-2-azaspiro[3.3]heptan-2-yl]-[3-[6-[[1-(trifluoromethyl)cyclopropyl]methylamino]-3-pyridyl]azetidin-1-yl]methanone] as the compound, how does the IC50 read?
**A.** 1.12 nM

**Q.** CS(=O)(=O)c1cccc(CN2CC3(C2)CN(C(=O)N2CC4(CC(n5cnc(C6CC6)n5)C4)C2)C3)c1 [Example 501, [6-(3-cyclopropyl-1,2,4-triazol-1-yl)-2-azaspiro[3.3]heptan-2-yl]-[6-[(3-methylsulfonylphenyl)methyl]-2,6-diazaspiro[3.3]heptan-2-yl]methanone] was tested. Which IC50 did it give?
**A.** 6.74 nM

**Q.** How did the IC50 turn out when O=C(N1C[C@H]2C[C@H](Oc3ccc(F)c(OC(F)(F)F)c3)C[C@H]2C1)N1CC2(CC(n3cnc(C4CC4)n3)C2)C1 [Example 133, [6-(3-cyclopropyl-1,2,4-triazol-1-yl)-2-azaspiro[3.3]heptan-2-yl]-[rac-(3aS,6aR)-5-[4-fluoro-3-(trifluoromethoxy)phenoxy]-3,3a,4,5,6,6a-hexahydro-1H-cyclopenta[c]pyrrol-2-yl]methanone] was run?
**A.** 1.3 nM
